The source of these data is patent publication US20200164005A1, “PHARMACEUTICAL COMPOSITIONS OF A BILE ACID DERIVATIVE AND MICROBIOME AND USES THEREOF” (Intercept Pharmaceuticals, Inc., priority 2017, published 2020).

Data set [1] has as its system MetaCyc pathways of the gut microbiome. As to the kind of experiment: MetaCyc pathway differential abundance analysis of stool metagenome. It is filed as in vivo, human. An excerpt:
(§1) HUMAnN2 (Abubucker et al., PLoS Comput. Biol. 8, e1002358 (2012)) was used to calculate gene and pathway abundance from metagenomic sequencing data. Uniref50 (UniProt® Consortium, Nucleic Acids Res. 43, D204 (2015)) was used for gene family definition. MetaCyc (Caspi et al., Nucleic Acids Res. 42, D459 (2014)) and KEGG (Kanehisa and Goto, Nucleic Acids Res. 28, 27 (2000); Kanehisa et al., Nucleic Acids Res. 44, D457 (2016)) were used for pathway analysis. • Gene family identification: Initially, 989251 gene families were identified from the dataset by HUMAnN2. Quantile normalization was implemented. For each sample, the RPK values were added up till 90% percentile of all genes (normalization factor, nf). RPK value of each gene in each sample was then divided by the nf of the sample, and multiplied with the mean of nf of all samples. 683270 uncharacterized genes were removed. Genes undetected in over 90% of samples (101994) were removed. 203987 genes were kept. Due to the large number of genes identified, 25% of the most varying genes were selected for further analysis. The most varying genes were defined by the coefficient variation (cv=sd/mean) of log 2 transformed value. • MetaCyc pathway identification: HUMAnN2 identified 567 MetaCyc pathways from the dataset. Quantile normalization was then performed. For each sample, the abundance values were added up till 90% percentile of all pathways (normalization factor, nf). Each pathway abundance in each sample was divided by the nf of the sample, and then multiplied with the mean of nf for all samples. The low abundance pathways (52), which were not detected on over 90% of all samples, were removed. 515 high quality MetaCyc pathways were kept for further analysis. • KEGG pathway identification: HUMAnN2 identified 160 KEGG pathways from the dataset. Quantile normalization was applied, and low abundance pathways were removed. 66 high quality KEGG pathways were kept for further analysis.
(§2) gene abundance˜aov(day*OCAdose+error(subject ID)) • Pathway differential abundance analysis: For each of the identified pathways, repeated measure ANOVA was also performed to study the time effect and OCA dose effect on pathway abundance change.
pathway abundance˜aov(day*OCAdose+error(subject ID)) • FGF19 analysis: The GEE model was applied in order to study the relationship of FGF19 change with the microbiome, gene family, and the pathway abundance change over time. The R function geeglm from R package geepack was used for gee modeling. Both FGF19 level and species/gene/pathway relative abundance were log 2 transformed before applying GEE model. […]

In data set [2] the test system is KEGG pathways of the gut microbiome. Briefly: KEGG pathway differential abundance analysis of stool metagenome. The note with it: for * (direction of KEGG pathway change): KEGG pathway of the table row, day 16. Also noted: key to * (direction of KEGG pathway change): “↑” means the pathway is up-regulated on day 16; “↓” means the pathway is down-regulated on day 16. It is filed as in vivo, human.
Source text: as §1, §2
pathway abundance˜aov(day*OCAdose+error(subject ID)) • FGF19 analysis: The GEE model was applied in order to study the relationship of FGF19 change with the microbiome, gene family, and the pathway abundance change over time. The R function geeglm from R package geepack was used for gee modeling. Both FGF19 level and species/gene/pathway relative abundance were log 2 transformed before applying GEE model.

Data set [3] relates to C4 (7α-hydroxy-4-cholesten-3-one). As to the kind of experiment: Plasma C4 level after OCA and its association with microbiome species (GEE). Format: in vivo, human. As to the method:
C4 level was measured on 5 mg and 10 mg OCA dose groups. The day 1 pre-dose C4 was used as a match of day 1 microbiome measurement. The average level of C4 from day 4 to day 17 pre-dose was calculated as a match of day 15 or 16 microbiome measurement. The average C4 level on day 30 and day 44 was used as a match of microbiome on day 37. The average of multiple time points was taken to match the three time points of microbiome measurements.
Geeglm(fgf19·log 2˜hour+dose+hour:dose, id=sID, corstr=“exchangeable”) • C4 analysis: The GEE model was applied in association study of C4 and microbiome species. Both C4 and species relative abundance were log 2 transformed before applying GEE model.
Geeglm(species·log 2˜C4·log 2, id=sID, corstr=“exchangeable”)
Twenty-four healthy subjects were randomly assigned to one of three dose groups (5 mg, 10 mg, or 25 mg OCA per day), with each dose group comprising eight subjects (four women and four men). A single oral OCA dose of 5 mg, 10 mg, or 25 mg tablets, depending on the treatment assignment, was administered on Day 1. In the multiple-dose phase, a single oral OCA dose of 5 mg, 10 mg, or 25 mg tablets, in accordance with the assigned treatment, was administered orally once daily for 14 days from Days 4-17. The patients remained at the study site until Day 30, and were followed up until the final visit on Day 44 (FIG. 62A). Fecal specimens were collected at baseline (Day 0), at the end of the multiple-dose phase (Day 17), and at the end of the study (Day 37). Pharmacokinetic blood samples were assessed pre-dose and on Days 1-3, 17, 35, 37, 39, and 44. […] Therefore, plasma C4 levels are a reliable dynamic indicator of the host response to FXR activation by OCA, that leads to the suppression of endogenous bile acid synthesis (Hirschfield et al., Gastroenterology 148, 751-761 e758 (2015); Mudaliar et al., Gastroenterology 145, 574-582 e571 (2013)).

Data set [4] in a line: Calculated small intestinal luminal concentration of OCA. Also noted: species or system human.
The conditions of data set [5]: 10 mg/day dose; cited from earlier work.
[6] abbreviates: repeated measure ANOVA, FDR<0.05.

Turning to `CC[C@H]1[C@@H](O)[C@@H]2[C@H](CC[C@]3(C)[C@@H]([C@H](C)CCC(=O)O)CC[C@@H]23)[C@@]2(C)CC[C@@H](O)C[C@@H]12` [OCA, 3α,7α-dihydroxy-6α-ethyl-5β-cholan-24-oic acid], the “pathways associated with nucleotide and amino acid biosynthesis” value in data set [1] (OCA treatment) is recorded as “enriched”. For the same molecule, in data set [1] (out of 515, FDR<0.05 for time effect), the “number of MetaCyc pathways differentially abundant over time” value came out at 41. The “number of MetaCyc pathways with significant time effects” value in data set [1] (repeated measure ANOVA, FDR<0.01, Example 7) stood at 135. The “OCA dose effect on MetaCyc pathway abundance” value in data set [1] (setting [6]) was “No OCA dose effect or OCA dose×day interaction was observed”. Moreover, the “* (direction of KEGG pathway change)” value in data set [2] (Fatty acid biosynthesis) is “↓”; in data set [2] (Purine metabolism), “↑”. Moreover, the “number of KEGG pathways differentially abundant over time” value in data set [2] (of 66, FDR<0.05 for time effect) was found to be 26. Besides, the “OCA dose effect on KEGG pathway abundance” value in data set [2] (setting [6]) is “No OCA dose or dose×day interaction was observed”. For the same molecule, in data set [3] (Day 16), the “plasma levels of C4 relative to Day 0 (pre-OCA dose)” value is recorded as “maximally suppressed”. Further, in data set [3] (Day 37), the “plasma levels of C4 at maximal time off OCA” value is given as “returned to normal”. Besides, in data set [3] (serial quantification, repeated measure ANOVA), the “plasma C4 in response to OCA treatment” value is given as “time-dependent reduction”. Further, in data set [4], the “calculated physiologic level that would be encountered in the human small intestine” value is reported as “approximately 12 micromolar”. Besides, the OCA concentration calculated to be reached in the human small intestine in data set [5] was approximately 40 µM.
